This is an account of results in patent US9267129B2, “Compositions and methods for conferring herbicide resistance” (BEN-GURION UNIVERSITY OF THE NEGEV RESEARCH AND DEVELOPMENT …, priority 2011, dated 2016).

In experiment [1] the test system is E. coli BUM1 carrying the mutant gene (pEp-mut). In words: Growth on M9 plates with SMM, bacteria carrying the mutant gene. The experiment is classed as cell-based, Escherichia coli. The conditions noted are these: 50 μM SMM, 48 hrs, 37° C. Here is the method: (§1) This strain also requires proline and thiamin, regardless of AHAS expression. Transformation of BUM1 cells was achieved using a standard heat shock protocol. BUM1 cells were grown in LB or in M9 minimal medium (7 mg/ml Na2HPO4; 3 mg/ml KH2PO4; 0.5 mg/ml NaCl; 1 mg/ml NH4Cl; 0.12 mg/ml MgSO4; 0.35 mg/ml thiamin HCl; 2 mg/ml glucose) supplemented with 200 μg/ml proline. Where appropriate, the M9 medium was supplemented with the BCAAs valine, leucine, and isoleucine (150 μg/ml of each) or with 50 μM SMM. BUM1 transformants were propagated and kept on LB medium supplemented with 100 μg/ml Ampicillin. For functional expression assays, the cells were washed and plated on M9 agar plates and incubated for 48 hrs at 37° C. […]
(§2) The expression vector pEp-empty, an empty plasmid that retains the native ilvEp promoter and ATG start codon, was created by amplification of pAH29 plasmid with the pAH29-empty primer set, and included BamHI and SalI restriction sites for future fusion with the algal genes. Three forms of PiAHAS genes were used for this experiment: PiAHAS full open reading frame (ORF), truncated PiAHAS without the estimated chloroplast targeting peptide (from Serine91), and PimAHAS containing the point mutation (W605S). […] The plates were incubated for 48 hrs (FIG. 3) and bacterial growth was determined. […]

Experiment [2] has as its system E. coli BUM1 transformed with the wild type PiAHAS genes. In words: Growth on M9 plates with SMM, bacteria transformed with wild type PiAHAS genes. The experiment is classed as cell-based, Escherichia coli. The settings on record: 50 μM SMM, 48 hrs, 37° C. Here is the method: as §1, §2

Take `COC(=O)c1ccccc1S(=O)(=O)NC(=O)Nc1nc(C)cc(C)n1` [SMM, sulfometuron methyl]: the “bacterial growth in presence of SMM” value in experiment [1] is “not affected”; in experiment [2] it was “totally inhibited”.
